How the values were obtained:
[1] = tested on: Aged human myoblasts; experiment: Myogenic transcription factor expression in aged human myoblasts; format: cell-based; details: compared to fusion media
Experimental: (§1) RNA was isolated from each well (RNeasy Mini Kit, Qiagen) and cDNA was obtained by reverse-transcription (High Capacity Reverse Transcription Kit, Thermo Fisher Scientific). Real-time quantitative PCR was performed using QuantStudio3 (Thermo Fisher).
Aged human myoblasts were cultured in well plates. […] Cells that had been cultured with IGF2 had increases in levels of MYOG at 48 hours and levels of MYOD at 72 hours.

[2] = tested on: DM1 human myoblast; experiment: Gene expression fold change in DM1 human myoblast; format: cell-based; details: IGF2 200 ng/mL
Experimental: Myoblasts were cultured 48 h in the presence of factors (BMP7 50 ng/mL, Butyrate 100 nM, IGF2 200 ng/mL).
Myoblasts were cultured 96 h in the presence of factors (IGF2 200 ng/mL). […] Myoblasts were cultured 48 h in the presence of factors (IGF2 200 ng/mL).
as §1
IGF2 was tested individually for its ability to promote proliferation and/or fusion of human muscle progenitor cells from an individual with myotonic dystrophy type 1 (hMD)—a muscular dystrophy caused by mutations in the DMPK1 gene. The effect of IGF2 on myogenic activity was assayed in biological triplicate across a range of concentrations centered around expected physiological levels by adding each factor to hMD myoblasts for 72 hours with daily media changes (DMEM+2% horse serum) and a second pulse of factors at the first media change. After 72 or 96 hours, cells were pulsed for 2-5 hours with EdU (30 uM), ethanol fixed, stained with Hoescht 3342, immunostained for proliferation—as measured by the percent of cells staining positive for EdU (% EdU)-, and immunostained for differentiation—as measured by the increase in cellular area staining positive for embryonic myosin heavy chain (% eMyHC) relative to the negative controls, which received media and vehicle only. Wells were imaged on a Keyence BZ-100 at 4×, the images quantified in Cell Profiler, and the statistics were computed in R. Additionally, RNA was extracted from myoblast and select transcript abundances quantified by qPCR.

[3] = Backbone cleavage on expression from CHO cells (reducing SDS-PAGE, Western blot)
Experimental: The amino acid backbone of IGF2 is cleaved when expressed from Chinese Hamster Ovary (CHO) cells (FIG. 13A) as visualized on a reducing SDS-PAGE and Western blot (FIG. 13B). The CHO cells were grown in a 37° C. incubator with a humidified atmosphere of 8% CO2 on an orbital shaker platform with a shaking speed 125 rpm to reach 4E6 cells/mL, followed by transferring the calculated volume of cells to fresh, pre-warmed ExpiCHO™ Expression Medium in a shake flask. Incubated flasks in a 37° C. incubator with a humidified atmosphere of 8% CO2 shook on an orbital shaker platform until cultures reached a density of 4×106-6×10^6 viable cells/mL. After mixing each plasmid with 100 ul SFM in a microtube; ExpiFectamine (8 ul×10.5=84 ul) with OptiPro medium (92 ul×10.5=966 ul) in a microtube; adding 100 ul into the plasmid tube and mix by pipetting; After 5 min, add 200 ul into each well and swirl to mix. mix enhancer (15×10.2=153 ul) with feed (600×10.2=6.12 ml), add 615 ul into each well. Culture supernatant collected at intervals was spun down at low speed and high speed, then frozen at −80 deg. Aliquots were analyzed for protein concentration by nanodrop, and then an equivalent amount loaded onto 4-12% SDS-PAGE gels for molecular weight distribution analysis. […]

[4] = Pharmacokinetics after intravenous injection in mice; format: in vivo; details: mice 10-12 weeks old, dose 10 mg/kg (HSA-IGF2R61A), 600 ug/kg (IGF2), Non-Compartment Analysis
Experimental: Murine pharmacokinetics (PK) represents the absorption, distribution, metabolism, and elimination of drugs from the body. The pharmacokinetic profile of the therapeutic polypeptides were determined in mice (10-12 weeks old). Mice were fed ad libitum and housed under controlled conditions of lighting (12-hour light/12-hour dark) and temperature (22-24° C.). Mice were allowed to acclimate for 3 days prior to the initiation of the experiment. Intravenous (IV) injection in 10-12 weeks old mice. Engineered mitogenic polypeptides concentrations in the samples were measured by ELISA. Various pharmacokinetics will be calculated as well as the absorption/elimination dynamics following different routes of administration.

[5] = 48 h, BMP7 50 ng/mL, Butyrate 100 nM

## IGF2: Human IGF2 polypeptide, amino acids 25 to 91 of SEQ ID NO. 32 (i.e. SEQ ID NO. 29)
[1]; 48 h
  MYF5 −48 h, fold change: 0.409
  MYOD1 −48 h, fold change: 0.519
[1]; 72 h
  MYF5 −72h, fold change: 0.708
  MYOG −72 h, fold change: 0.018
[2]; 48 h
  ATP1B1 expression fold change compared to FM (vehicle): 3.018
[2]; [5]
  MYF5 myogenic gene expression fold change compared to FM (vehicle): 0.730
  MYODI myogenic gene expression fold change compared to FM (vehicle): 1.252
  MYOG myogenic gene expression fold change compared to FM (vehicle): 2.972
[2]; 96 h
  CKM expression fold change compared to vehicle: 5.165
  MYH3 expression fold change compared to vehicle: 14.833
[3]
  cleavage of the amino acid backbone when expressed from CHO cells: cleaved
[4]
  Half-life: 2.85 h

Source: patent publication US20220409696A1, “Heparin-Associated Polypeptides and Uses Thereof” (Juvena Therapeutics, Inc., priority 2021, published 2022)
